Each block holds one molecule with its values, some of them ahead of it.
Assays:
[1] = Half life in human serum at 100 mg, qd; assay type: ADME, cell-free
[2] = target: T1, Human immunodeficiency virus type 1 reverse transcriptase (Human immunodeficiency virus 1, UniProt Q72547); test: Inhibition of HIV1 reverse transcriptase derived from HIV patient plasma by LC/MS/MS analysis
[3] = tested on: Human immunodeficiency virus 1; test: Antiviral activity against HIV1; assay type: functional, organism-based
[4] = tested on: Human immunodeficiency virus 1; test: Antiviral activity against HIV1 assessed as serum adjusted potency; assay type: functional, organism-based
[5] = target: T1, Human immunodeficiency virus type 1 reverse transcriptase; test: Inhibition of HIV1 reverse transcriptase
[6] = tested on: Human immunodeficiency virus 1; test: Antiviral activity against HIV1 subtype B; assay type: functional, organism-based; details: Human immunodeficiency virus 1, subtype B
[7] = Lipophilicity, log P of the compound; assay type: physicochemical; details: octanol/water
[8] = target: Human immunodeficiency virus type 1 reverse transcriptase (Human immunodeficiency virus 1) (UniProt Q72547); test: Inhibition of HIV1 3B reverse transcriptase infected in human PBMC cells after 4 days; assay type: cell-based
[9] = Half life in human serum at 600 mg, qd; assay type: ADME, cell-free
[10] = Cmax in Beagle dog; assay type: ADME, Canis lupus familiaris; details: in vivo
[11] = Cmax in rat; assay type: ADME; details: in vivo
[12] = Tmax in rat; assay type: ADME; details: in vivo
[13] = target: T1, Human immunodeficiency virus type 1 reverse transcriptase; test: Inhibition of wild type recombinant HIV1 reverse transcriptase using poly(rA)-oligo(dT) as template/primer
[14] = target: Human immunodeficiency virus type 1 reverse transcriptase (Human immunodeficiency virus 1) (UniProt Q72547)
[15] = Half life in human serum at 25 mg, qd; assay type: ADME, cell-free
[16] = Half life in human serum at 200 mg, bid; assay type: ADME, cell-free
[17] = Oral bioavailability in human; assay type: ADME, organism-based; details: in vivo
[18] = Half life in human serum at 400 mg, qd; assay type: ADME, cell-free

half-life [1]: 11 to 15 h
Structure (SMILES): Cn1c(Cn2ccc(C(F)(F)F)c(Oc3cc(Cl)cc(C#N)c3)c2=O)n[nH]c1=O [DORAVIRINE]

IC50 [2]: 6 µM
Structure (SMILES): O=C1Nc2cccnc2Nc2ccccc21

EC50 [3]: 0.0012 µM
EC50 [4]: 0.0138 µM
Structure (SMILES): N#Cc1cc(Cl)cc(Oc2c(Br)ccc(CC(=O)Nc3ccc(S(N)(=O)=O)cc3Cl)c2F)c1 [DEPULFAVIRINE]

IC50 [5]: 0.046 µM
Structure (SMILES): CC1O[C@](/C=C/C2CC2)(C(F)(F)F)c2cc(Cl)ccc2NC1=O (some centres undefined)

EC50 [6]: 1 µM
Structure (SMILES): NC(=O)c1[nH]c2cccc(Cl)c2c1S(=O)(=O)c1ccccc1

logP [7]: 1.52
Structure (SMILES): Cc1ccnc2c1NC(=O)c1cccnc1N2

ED50 [8]: 0.3 µM
Structure (SMILES): CCNc1cccnc1N1CCN(C(=O)c2cc3ccccc3[nH]2)CC1

logP [7]: 3.3
ED50 [8]: 2 µM
Structure (SMILES): CCNc1cccnc1N1CCN(C(=O)c2cc(C)c(OC)c(C)c2)CC1

half-life [9]: 40 to 55 h
Structure (SMILES): O=C1Nc2ccc(Cl)cc2[C@@](C#CC2CC2)(C(F)(F)F)O1 [EFAVIRENZ]

EC50 [6]: 5500 µM
Structure (SMILES): Cc1cc(/C=C/C#N)cc(F)c1Nc1cccc(Nc2ccc(C#N)cc2)n1

logP [7]: 1.03
Structure (SMILES): O=C1Nc2cccnc2Nc2ncccc21

ED50 [8]: 0.07 µM
Structure (SMILES): Cc1cn([C@H]2C[C@H](N=[N+]=[N-])[C@@H](CO)O2)c(=O)[nH]c1=O

logP [7]: 1.28
Cmax [10]: 16 to 33 µM
Cmax [11]: 4.6 to 17.4 µM
Tmax [12]: 0.5 to 1 h
Structure (SMILES): CCNc1cccnc1N1CCN(C(=O)c2cc3cc(OC)ccc3[nH]2)CC1.CS(=O)(=O)O [ATEVIRDINE SULPHATE]

logP [7]: 2.46
Structure (SMILES): CCN1c2ccccc2N(C)C(=O)c2cccnc21

ED50 [8]: 2 µM
IC50 [13]: 20 µM
Structure (SMILES): CCNc1cccnc1N1CCN(Cc2cc(C)c(OC)c(C)c2)CC1

IC50 [5]: 0.95 to 5.11 µM
Structure (SMILES): O=S1(c2ccccc2)=NC(=S)Nc2ccccc21 (centres undefined)

EC50 [6]: 180 µM
Structure (SMILES): NC(=O)c1[nH]c2ccccc2c1S(=O)(=O)c1ccccc1

IC90 [14]: 0.279 µM
Structure (SMILES): O=C1Nc2ccc(Cc3ccccc3)cc2[C@@](C#CC2CC2)(C(F)(F)F)O1

logP [7]: 1.65
Structure (SMILES): O=C1Nc2ccccc2Nc2ncccc21

half-life [15]: 50 h
Structure (SMILES): Cc1cc(/C=C/C#N)cc(C)c1Nc1ccnc(Nc2ccc(C#N)cc2)n1 [RILPIVIRINE]

half-life [16]: 41 h
Structure (SMILES): Cc1cc(C#N)cc(C)c1Oc1nc(Nc2ccc(C#N)cc2)nc(N)c1Br [ETRAVIRINE]

Structure (SMILES): Cc1ccnc2c1NC(=O)c1cccnc1N2C1CC1 [NEVIRAPINE]
half-life [16]: 25 to 30 h
logP [7]: 2.05
bioavailability [17]: 95%

Structure (SMILES): CC1O[C@](C#CC2CC2)(C(F)(F)F)c2cc(Cl)ccc2NC1=O (some centres undefined)
IC50 [5]: 0.082 µM

logP [7]: 1.84
Structure (SMILES): CCN1c2ncccc2C(=O)N(C)c2cccnc21

ED50 [8]: 0.3 µM
Structure (SMILES): COc1ccc2[nH]c(C(=O)N3CCN(c4ncccc4NC(C)C)CC3)cc2c1

half-life [18]: 2 to 11 h
Structure (SMILES): CC(C)Nc1cccnc1N1CCN(C(=O)c2cc3cc(NS(C)(=O)=O)ccc3[nH]2)CC1 [DELAVIRDINE]

logP [7]: 2.09
Structure (SMILES): CCN1c2ncccc2C(=O)Nc2c(C)ccnc21

IC50 [5]: 0.056 µM
Structure (SMILES): CCOC1(c2ccccc2)c2cc(Cl)ccc2NC(=S)N1C (centres undefined)

EC50 [6]: 1000 µM
Structure (SMILES): Cc1cc(/C=C/C#N)cc(F)c1Nc1ccc(F)c(Nc2ccc(C#N)cc2)n1

ED50 [8]: 0.3 µM
Structure (SMILES): CC(C)Nc1cccnc1N1CCN(C(=O)c2cc3ccccc3[nH]2)CC1

ED50 [8]: 0.3 µM
Structure (SMILES): CC(C)Nc1cccnc1N1CCN(C(=O)c2cc3cc(F)ccc3[nH]2)CC1

Reference: ChEMBL document CHEMBL4393650, “The Journey of HIV-1 Non-Nucleoside Reverse Transcriptase Inhibitors (NNRTIs) from Lab to Clinic” (J Med Chem, 2019)
